Source: EP3002286B1, “PREPARATION METHOD FOR POLYMORPHIC 6-(4-CHLOROPHENOXY)-TETRAZOLO[5,1-A]PHTHALAZINE AND USE THEREOF” (Jilin Yinglian Shangde Science and Technology Development …, priority 2014, dated 2015)

Assays:
[1] = system: maximal electroshock seizure; assay: Maximal electroshock (MES) test; type: in vivo; settings: mice; for ED50: Mus musculus, po; for ED50 / ED50, MES: p.o (intragastrically, i.g.), effect against electroshock seizure
Procedure: Maximal electroshock (MES) test is an ideal animal model for evaluating a compound having a potential anti-epileptic effect, and if the compound can be applied against the maximal electroshock seizure, then it is likely to be further developed as a drug for treatment of grand mal clinically. Each of the four crystalline forms of this invention was intragastrically (i.g.) administered to mice respectively, each median effective dose (ED50) for the effect against electroshock seizure was measured, and each anti-convulsion effect was assessed. Table 3 Comparison of the pharmacological effect of the anti-convulsion of the crystalline forms (mg/kg, p.o)

[2] = Comparison of solubility of the crystalline forms in water (UV absorbance of saturated solution); type: physicochemical; settings: for Absorbance (Abs): saturated water solution (10mg in 1ml of water, stirred 1 hour, filtered), diluted 10 times, ultraviolet spectrophotometer; for Solubility relationship with respect to Form A: water, concentration ratio from absorbance according to the Lambert-Beer law
Procedure: 10mg of 6-(4-chlorophenoxy)-tetrazolo[5,1-a]phthalazine in each of the four crystalline forms was dissolved into 1ml of water, respectively, and the mixture was stirred for 1 hour so as to reach a solubility equilibrium with a supersaturated state being kept, and then the resultant mixture was filtered to give a clear and saturated water solution for each of the crystalline forms, respectively. Then, each solution was diluted 10 times, and absorbance thereof was measured using a ultraviolet spectrophotometer, and then the concentration ratio of 6-(4-chlorophenoxy)-tetrazolo[5,1-a]phthalazine in each solution could be determined according to the Lambert-Beer law, so as to obtain the solubility relationship among the four crystalline forms (see Table 2 for results). Table 2 Comparison of solubility of the crystalline forms

[3] = Stability of the crystalline forms (suspension balance), product form decided by XRPD; type: physicochemical; settings: suspension time 2 days
Procedure: 20mg of crystalline form A and 20mg of crystalline form B were mixed, then placed into 1ml of methanol as a solvent, followed by mixing the resultant suspension with a magnetic stirrer at a rotational speed of 100 rpm for two days. And then, the suspension was filtered, and the product obtained was washed with a small amount of methanol, followed by drying at room temperature to give a solid, which was analyzed with XRPD to decide the crystalline form of the product. Other sample mixtures were also shown in Table 1 (see Table 1 for results). Table 1 Comparison of the stability of the crystalline forms (suspension balance)

| Absorbance (Abs) [2] | Solubility relationship with respect to Form A [2] | SMILES | ED50, MES [1] | other results |
| --- | --- | --- | --- | --- |
| 0.0407 Abs | – | Clc1ccc(Oc2nn3nnnc3c3ccccc23)cc1 [Crystalline form A, 6-(4-chlorophenoxy)-tetrazolo[5,1-a]phthalazine] | – | ED50 [1]: 15.6 mg/kg |
| 0.326 Abs | 8.0 times | Clc1ccc(Oc2nn3nnnc3c3ccccc23)cc1 [Crystalline form C, 6-(4-chlorophenoxy)-tetrazolo[5,1-a]phthalazine] | 8.5 mg/kg | anti-convulsion effect (in words) ([1]; comparison among the crystalline forms, intragastrically administered): strongest anti-convulsion effect; water solubility (in words) ([2]; comparison among the crystalline forms): best water solubility |
| 0.134 Abs | 3.3 times | Clc1ccc(Oc2nn3nnnc3c3ccccc23)cc1 [Crystalline form D, 6-(4-chlorophenoxy)-tetrazolo[5,1-a]phthalazine] | 12.7 mg/kg | – |

Further lines, the compound ahead of its results:

| SMILES | Absorbance (Abs) [2] | Solubility relationship with respect to Form A [2] | ED50, MES [1] | other results |
| --- | --- | --- | --- | --- |
| NC(=O)N1c2ccccc2C=Cc2ccccc21 [Carbamazepine, reference compound] | – | – | – | ED50 [1]: 15.4 mg/kg |
| Clc1ccc(Oc2nn3nnnc3c3ccccc23)cc1 [Crystalline form B, 6-(4-chlorophenoxy)-tetrazolo[5,1-a]phthalazine] | 0.279 Abs | 6.8 times | 9.2 mg/kg | – |
| Clc1ccc(Oc2nn3nnnc3c3ccccc23)cc1 [Form A + Form B, 6-(4-chlorophenoxy)-tetrazolo[5,1-a]phthalazine] | – | – | – | Crystalline form of the product ([3]; solvent for suspension Methanol): Form A |
| Clc1ccc(Oc2nn3nnnc3c3ccccc23)cc1 [Form A + Form C, 6-(4-chlorophenoxy)-tetrazolo[5,1-a]phthalazine] | – | – | – | Crystalline form of the product ([3]; solvent for suspension Methyl ethyl ketone): Form A |
| Clc1ccc(Oc2nn3nnnc3c3ccccc23)cc1 [Form A + Form D, 6-(4-chlorophenoxy)-tetrazolo[5,1-a]phthalazine] | – | – | – | Crystalline form of the product ([3]; solvent for suspension Nitromethane + n-hexane): Form A |
